Assay results from PMC6472337, “L amino acid transporter structure and molecular bases for the asymmetry of substrate interaction” (Nature Communications, 2019).
Values joined by “and” are separate entries in the source; they are usually repeats but may differ in a detail not shown here. Identical values can stand only once. Like-named read-outs stand apart in the source and are kept apart here.

Test system: BasC wild-type
Assay: [3H]L-alanine transport (influx, efflux, exchange) in BasC proteoliposomes
Type: biochemical, Carnobacterium sp AT7
Conditions: for V: 4 mM L-alanine inside PLs, without Nb74
Description: BasC-GFP protein was reconstituted in E. coli polar lipids (Sigma-Aldrich, Madrid, Spain), as previously described. Lipids were dried under N2 and suspended in reconstitution buffer (20 mM Tris-Base, 150 mM NaCl, pH 7.4). The suspension was sonicated to clarity and purified BasC protein was added to reach the desired protein to lipid ratio of 1:100 (w:w). To destabilize the liposomes, 1.25% ß-D-octylglucoside was added and the mixture was incubated on ice with occasional agitation for 5 min. DDM and ß-D-octylglucoside were removed by dialysis for 40 h at 4 °C against 100 volumes of dialysis buffer. Proteoliposome (PL) suspensions were frozen in liquid N2 and stored at −80 °C until use.
For uptake experiments, the desired intraliposomal amino acid concentration was added to the PL suspension, which was then subjected to three freeze/thaw cycles. The extraliposomal amino acid content was then removed by ultracentrifugation (100,000 × g for 1 h at 4 °C) and PLs were resuspended to one-third of the initial volume with reconstitution buffer. Amino acid uptake assays were initiated after mixing 10 μl of cold PLs with 180 μl of transport buffer (20 mM Tris-Base, 150 mM NaCl, pH 7.4 plus 0.5–1 µCi/180 µl of radiolabeled L-amino acid (Perkin Elmer, Waltham, MA)) supplemented with the unlabeled amino acid to the desired concentration. This mixture was then incubated at room temperature for the indicated periods. […] Filters were then washed twice with 2 ml of stop buffer and dried, and the trapped radioactivity was counted. Transport measured in PLs containing no amino acid was subtracted from each data point to calculate the net exchange. […] BasC protein in PLs was determined by Coomassie blue staining in SDS-PAGE gels compared with known amounts of BasC in DDM micelles, determined by BCA assay (Pierce, Rockford, IL) and loaded in the same gel.

With `C[C@H](N)C(=O)O` [L-alanine] as the compound, how does the “saturation of the transporter at 4 mM intraliposomal L-alanine” value (BasC wild-type) read?
The value was “about 80%”.

And the “V/[L-Ala]” value (Eadie-Hofstee, L-alanine 800 μM, with 5 µM Nb74, n=1-3 and mean)?
Its value is 0.010 pmol µg prot-1 s-1µM-1.

What about the Km (L-alanine concentrations up to 800 µM, absence of Nb74, read-out: extracellular Km) of the same compound?
Its Km is 65 ± 12 µM.

What about the V (external [3H]L-alanine 100 μM, n=1-3 and mean) of the same compound?
Its V is 5.346 pmol L-Ala μg BasC-1 s-1 and 5.124 pmol L-Ala μg BasC-1 s-1 and 4.879 pmol L-Ala μg BasC-1 s-1.

What about the V (external [3H]L-alanine 200 μM, n=1-3 and mean) of the same compound?
The V was 7.346 pmol L-Ala μg BasC-1 s-1 and 6.582 pmol L-Ala μg BasC-1 s-1 and 6.938 pmol L-Ala μg BasC-1 s-1.

What about the V (external [3H]L-alanine 400 μM, n=1-3 and mean) of the same compound?
Its V is 7.143 pmol L-Ala μg BasC-1 s-1 and 6.357 pmol L-Ala μg BasC-1 s-1 and 9.257 pmol L-Ala μg BasC-1 s-1.

What about the Km (extracellular side, wild-type, read-out: Km (o)) of the same compound?
The Km was 53.7 ± 3.97 µM.

And the Km (full range kinetics inhibited by 5 µM Nb74, read-out: extracellular Km)?
The Km was 46 ± 9 µM.

And the Km (intracellular side, wild-type, read-out: Km (i))?
Its Km is 2220 ± 150 µM.

And the Vmax (wild-type)?
The Vmax was 6.37 ± 0.70 pmols L-alanine µg protein^−1 s^−1.
